Calls of active or inactive are those of the source. How the calls were made is not given here.
Legend:
Assay in all cases: ABHD11 anti-target and serine hydrolase off-target inhibition, late-stage follow-up, selectivity assay for LYPLA1 inhibitor project, LC-MS, SILAC, mouse cells (AID 504522)
[1] = system: AADACL1; details: SILAC ABPP LC-MS, serine hydrolase panel, stronger effect = lower value
[2] = system: ABHD10; details: SILAC ABPP LC-MS, serine hydrolase panel, stronger effect = lower value
[3] = system: ABHD11; details: SILAC ABPP LC-MS, serine hydrolase panel, stronger effect = lower value
[4] = system: ABHD12; details: SILAC ABPP LC-MS, serine hydrolase panel, stronger effect = lower value
[5] = system: ABHD6; details: SILAC ABPP LC-MS, serine hydrolase panel, stronger effect = lower value
[6] = system: ACOT1; details: SILAC ABPP LC-MS, serine hydrolase panel, stronger effect = lower value
[7] = system: ACOT2; details: SILAC ABPP LC-MS, serine hydrolase panel, stronger effect = lower value
[8] = system: ACOT7; details: SILAC ABPP LC-MS, serine hydrolase panel, stronger effect = lower value
[9] = system: APEH; details: SILAC ABPP LC-MS, serine hydrolase panel, stronger effect = lower value
[10] = system: BAT5; details: SILAC ABPP LC-MS, serine hydrolase panel, stronger effect = lower value
[11] = system: CTSA; details: SILAC ABPP LC-MS, serine hydrolase panel, stronger effect = lower value
[12] = system: DDHD1; details: SILAC ABPP LC-MS, serine hydrolase panel, stronger effect = lower value
[13] = system: DPP4; details: SILAC ABPP LC-MS, serine hydrolase panel, stronger effect = lower value
[14] = system: DPP7; details: SILAC ABPP LC-MS, serine hydrolase panel, stronger effect = lower value
[15] = system: DPP8; details: SILAC ABPP LC-MS, serine hydrolase panel, stronger effect = lower value
[16] = system: DPP9; details: SILAC ABPP LC-MS, serine hydrolase panel, stronger effect = lower value
[17] = system: ESD; details: SILAC ABPP LC-MS, serine hydrolase panel, stronger effect = lower value
[18] = system: FAAH; details: SILAC ABPP LC-MS, serine hydrolase panel, stronger effect = lower value
[19] = system: FAM108B1; details: SILAC ABPP LC-MS, serine hydrolase panel, stronger effect = lower value
[20] = system: FASN; details: SILAC ABPP LC-MS, serine hydrolase panel, stronger effect = lower value
[21] = system: IAH1; details: SILAC ABPP LC-MS, serine hydrolase panel, stronger effect = lower value
[22] = system: LACTB; details: SILAC ABPP LC-MS, serine hydrolase panel, stronger effect = lower value
[23] = system: LIPA; details: SILAC ABPP LC-MS, serine hydrolase panel, stronger effect = lower value
[24] = system: LYPLA1; details: SILAC ABPP LC-MS, serine hydrolase panel, stronger effect = lower value
[25] = system: LYPLA2; details: SILAC ABPP LC-MS, serine hydrolase panel, stronger effect = lower value
[26] = system: LYPLA3; details: SILAC ABPP LC-MS, serine hydrolase panel, stronger effect = lower value
[27] = system: PAFAH1B2; details: SILAC ABPP LC-MS, serine hydrolase panel, stronger effect = lower value
[28] = system: PAFAH1B3; details: SILAC ABPP LC-MS, serine hydrolase panel, stronger effect = lower value
[29] = system: PARL; details: SILAC ABPP LC-MS, serine hydrolase panel, stronger effect = lower value
[30] = system: PLA2G6; details: SILAC ABPP LC-MS, serine hydrolase panel, stronger effect = lower value
[31] = system: PNPLA6; details: SILAC ABPP LC-MS, serine hydrolase panel, stronger effect = lower value
[32] = system: PNPLA8; details: SILAC ABPP LC-MS, serine hydrolase panel, stronger effect = lower value
[33] = system: PPME1; details: SILAC ABPP LC-MS, serine hydrolase panel, stronger effect = lower value
[34] = system: PRCP; details: SILAC ABPP LC-MS, serine hydrolase panel, stronger effect = lower value
[35] = system: PREPL; details: SILAC ABPP LC-MS, serine hydrolase panel, stronger effect = lower value
[36] = target: Platelet-activating factor acetylhydrolase 2, cytoplasmic (Mus musculus) (UniProt Q8VDG7); details: SILAC ABPP LC-MS, serine hydrolase panel, PAFAH2, stronger effect = lower value
Sequence of Platelet-activating factor acetylhydrolase 2, cytoplasmic (Mus musculus) (Q8VDG7 whole entry, looked up): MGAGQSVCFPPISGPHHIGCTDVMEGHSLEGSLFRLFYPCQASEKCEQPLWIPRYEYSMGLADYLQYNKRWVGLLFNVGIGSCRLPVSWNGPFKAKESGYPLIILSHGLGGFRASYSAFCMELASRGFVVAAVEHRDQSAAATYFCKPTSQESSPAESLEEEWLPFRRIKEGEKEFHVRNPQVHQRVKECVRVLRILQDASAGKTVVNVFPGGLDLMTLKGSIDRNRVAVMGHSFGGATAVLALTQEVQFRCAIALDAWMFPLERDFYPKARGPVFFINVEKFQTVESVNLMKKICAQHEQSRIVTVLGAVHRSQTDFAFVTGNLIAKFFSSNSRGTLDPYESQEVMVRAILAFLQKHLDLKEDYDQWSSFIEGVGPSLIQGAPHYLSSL

[37] = target: Prolyl endopeptidase (Mus musculus) (UniProt Q9QUR6); details: SILAC ABPP LC-MS, serine hydrolase panel, PREP, stronger effect = lower value
Sequence of Prolyl endopeptidase (Mus musculus) (Q9QUR6 whole entry, looked up): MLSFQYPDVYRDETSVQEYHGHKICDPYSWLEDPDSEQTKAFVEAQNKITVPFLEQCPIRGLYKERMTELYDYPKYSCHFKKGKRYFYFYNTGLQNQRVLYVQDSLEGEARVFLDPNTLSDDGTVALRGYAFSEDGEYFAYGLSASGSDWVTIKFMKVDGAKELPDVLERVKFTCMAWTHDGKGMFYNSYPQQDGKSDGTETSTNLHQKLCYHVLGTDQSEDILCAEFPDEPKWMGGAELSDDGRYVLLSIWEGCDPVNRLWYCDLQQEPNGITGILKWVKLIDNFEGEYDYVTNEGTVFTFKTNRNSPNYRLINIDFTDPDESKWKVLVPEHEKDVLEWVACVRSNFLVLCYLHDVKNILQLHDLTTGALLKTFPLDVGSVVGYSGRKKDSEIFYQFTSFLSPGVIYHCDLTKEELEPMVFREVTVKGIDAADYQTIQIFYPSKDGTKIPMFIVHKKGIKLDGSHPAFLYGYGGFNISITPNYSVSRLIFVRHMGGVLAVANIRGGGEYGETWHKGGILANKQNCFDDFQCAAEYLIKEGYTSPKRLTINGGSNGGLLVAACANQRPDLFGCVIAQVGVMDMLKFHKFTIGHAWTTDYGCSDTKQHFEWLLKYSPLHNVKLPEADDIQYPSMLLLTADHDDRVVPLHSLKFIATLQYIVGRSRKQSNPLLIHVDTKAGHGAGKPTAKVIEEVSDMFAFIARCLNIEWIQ

[38] = system: SERHL; details: SILAC ABPP LC-MS, serine hydrolase panel, stronger effect = lower value
[39] = system: SIAE; details: SILAC ABPP LC-MS, serine hydrolase panel, stronger effect = lower value

## COCC1CCCCN1C(=O)n1ncc(C(O)(c2ccccc2)c2ccccc2)n1 (centres undefined)
[1]
  SILAC ratio (probe-treated/control): 1.3 (inactive)
[2]
  SILAC ratio (probe-treated/control): 1.3 (inactive)
[3]
  SILAC ratio (probe-treated/control): 0.02
[4]
  SILAC ratio (probe-treated/control): 1.3 (inactive)
[5]
  SILAC ratio (probe-treated/control): 0.9 (inactive)
[6]
  SILAC ratio (probe-treated/control): 1 (inactive)
[7]
  SILAC ratio (probe-treated/control): 1.1 (inactive)
[8]
  SILAC ratio (probe-treated/control): 1.5 (inactive)
[9]
  SILAC ratio (probe-treated/control): 1.4 (inactive)
[10]
  SILAC ratio (probe-treated/control): 1.5 (inactive)
[11]
  SILAC ratio (probe-treated/control): 1.3 (inactive)
[12]
  SILAC ratio (probe-treated/control): 2 (inactive)
[13]
  SILAC ratio (probe-treated/control): 1 (inactive)
[14]
  SILAC ratio (probe-treated/control): 1.3 (inactive)
[15]
  SILAC ratio (probe-treated/control): 1.5 (inactive)
[16]
  SILAC ratio (probe-treated/control): 1.5 (inactive)
[17]
  SILAC ratio (probe-treated/control): 1.4 (inactive)
[18]
  SILAC ratio (probe-treated/control): 1.5 (inactive)
[19]
  SILAC ratio (probe-treated/control): 1.3 (inactive)
[20]
  SILAC ratio (probe-treated/control): 1.5 (inactive)
[21]
  SILAC ratio (probe-treated/control): 1.4 (inactive)
[22]
  SILAC ratio (probe-treated/control): 1.5 (inactive)
[23]
  SILAC ratio (probe-treated/control): 1.4 (inactive)
[24]
  SILAC ratio (probe-treated/control): 1.5 (inactive)
[25]
  SILAC ratio (probe-treated/control): 1.5 (inactive)
[26]
  SILAC ratio (probe-treated/control): 1.5 (inactive)
[27]
  SILAC ratio (probe-treated/control): 1.6 (inactive)
[28]
  SILAC ratio (probe-treated/control): 1.3 (inactive)
[29]
  SILAC ratio (probe-treated/control): 1.5 (inactive)
[30]
  SILAC ratio (probe-treated/control): 1.4 (inactive)
[31]
  SILAC ratio (probe-treated/control): 1.4 (inactive)
[32]
  SILAC ratio (probe-treated/control): 1.3 (inactive)
[33]
  SILAC ratio (probe-treated/control): 1.5 (inactive)
[34]
  SILAC ratio (probe-treated/control): 1.5 (inactive)
[35]
  SILAC ratio (probe-treated/control): 1.2 (inactive)
[36]
  SILAC ratio (probe-treated/control): 1.3 (inactive)
[37]
  SILAC ratio (probe-treated/control): 1.4 (inactive)
[38]
  SILAC ratio (probe-treated/control): 1.5 (inactive)
[39]
  SILAC ratio (probe-treated/control): 1.5 (inactive)

Reference: PubChem BioAssay AID504522 (The Scripps Research Institute Molecular Screening Center, 2011)
